What was measured:
[1] = cited from earlier work
NADPH oxidase = NADPH oxidase (Homo sapiens, UniProt P04839); details: cited from earlier work
hybridoma macrophages = assay: Oxidant release in LPS or interferon activated hybridoma macrophages; type: cell-based
Text: PMA activates the oxidative burst. The oxidant detected is the same oxidant seen in Kupfer liver cells and lung macrophages: peroxynitrite.

Chain of NADPH oxidase (P04839 2-570 limits assumed): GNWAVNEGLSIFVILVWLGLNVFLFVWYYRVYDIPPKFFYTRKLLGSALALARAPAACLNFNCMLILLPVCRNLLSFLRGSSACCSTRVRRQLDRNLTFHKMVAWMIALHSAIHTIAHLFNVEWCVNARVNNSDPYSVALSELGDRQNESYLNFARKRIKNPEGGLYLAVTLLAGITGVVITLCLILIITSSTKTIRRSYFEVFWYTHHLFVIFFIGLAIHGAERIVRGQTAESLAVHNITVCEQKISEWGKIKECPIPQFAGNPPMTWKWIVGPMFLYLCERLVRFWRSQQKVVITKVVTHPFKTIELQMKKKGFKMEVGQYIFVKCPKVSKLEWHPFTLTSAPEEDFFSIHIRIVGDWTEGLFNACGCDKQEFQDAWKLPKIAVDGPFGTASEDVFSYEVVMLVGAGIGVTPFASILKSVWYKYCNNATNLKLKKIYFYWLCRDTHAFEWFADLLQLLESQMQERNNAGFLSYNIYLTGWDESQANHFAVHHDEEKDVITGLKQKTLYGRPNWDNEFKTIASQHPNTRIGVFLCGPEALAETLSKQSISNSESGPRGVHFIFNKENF
Chain of NADPH oxidase (P13498 2-195 partner limits assumed): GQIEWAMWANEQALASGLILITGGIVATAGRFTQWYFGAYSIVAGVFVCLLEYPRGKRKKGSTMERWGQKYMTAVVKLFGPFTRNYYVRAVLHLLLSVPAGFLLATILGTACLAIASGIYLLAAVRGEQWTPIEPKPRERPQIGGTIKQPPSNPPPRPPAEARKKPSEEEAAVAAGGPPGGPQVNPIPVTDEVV

Structure (SMILES): CC(=O)N[C@@H](CS)C(=O)O [N-acetyl cysteine]
- Daily dose usable without toxic side effects ([1]; man, daily): Up to 40 mg per kilogram of body weight

Structure (SMILES): c1ccc2c(c1)[I+]c1ccccc1-2 [diphenylene iodonium]
- Concentration printed for NADPH oxidase inhibitor (NADPH oxidase): 15 nM

Structure (SMILES): O=C1NC(C(=O)O)CS1 (stereo not shown) [2-oxo-4-thiazolidene carboxylic acid]
- Oral doses administered without toxicity ([1]; in vivo, po): 0.15 to 0.45 mmol/kg

Structure (SMILES): CCCCCCCCCCCCCC(=O)O[C@@H]1[C@@H](C)[C@@]2(O)[C@@H](C=C(CO)C[C@]3(O)C(=O)C(C)=C[C@@H]23)[C@@H]2C(C)(C)[C@]12OC(C)=O [phorbol myristate acetate]
- Stimulation of oxidant (peroxynitrite) produced (hybridoma macrophages): about 40 fold
